Assays:
[1] = tested on: ^15N-labeled Pd VIN3_123-326; assay: NMR (BEST-TROSY) interaction of negatively charged polymers with Pd VIN3 PHD superdomain; assay type: binding, Phoenix dactylifera
Description: For NMR spectroscopy, A. thaliana VIN3_150-208 and P. dactilyfera VIN3_123-326 were expressed in M9 minimal medium supplemented with 0.4% glucose, antibiotics, trace elements, 25 ml overnight culture, and 2 g of ^15N-H4Cl per liter of expression culture. Cultures were grown and processed essentially as described before. NMR samples containing 50 μM ^15N-labeled VIN3_150-208 or VIN3_123-326 were prepared in aqueous buffer (25 mM Tris pH 8, 150 mM NaCl, and 1 mM DTT). The 50 μM ^15N-labeled VIN3_150-208 or VIN3_123-326 was incubated with 0.5 mM histone H3 peptides resuspended in 25 mM Tris pH 8, 150 mM NaCl, and 1 mM DTT for >30 min before measurement. Spectra were recorded on a Bruker Avance-III spectrometer operating at 600 MHz ^1H frequency and equipped with a 5 mm inverse detection cryogenic probe. BEST-TROSY shift correlation experiments ([45]) were acquired with 256 × 1024 points in t1 and t2, respectively. Spectra were processed in TopSpin version 3.2 (Bruker), with linear prediction in t1, giving a digital resolution of 2.2 and 8.2 Hz/point in the processed data.
Generation of nucleic acid probes for NMR
FLC DNA was used as a template for the design of a dsDNA 60-mer probe, generated by annealing the sequence (5′ […] 3′) and its complementary oligonucleotide for 2 min at 95 °C. […]

[2] = tested on: Pd VIN3_123-326; assay: ITC binding to Pd VIN3 PHD superdomain; parameters: species or system Phoenix dactylifera; conditions: 25 °C, Pd VIN3_123-326 with 60-mer DNA
Description: VIN3_123-326 from P. dactilyfera was amplified by PCR from synthetic codon optimized genes (gBlocks, Integrated DNA Technologies) and subcloned into pEC-LIC-His-3C (kindly provided by Jurg Muller) containing a hexahistidine tag and a 3C protease cleavage site at the N terminus. VIN3_123-326 was expressed and purified as described previously for VIN3_150-208. In this case, after 3C cleavage overnight, the sample was loaded on a HiLoad 26/600 Superdex 200 pg column (GE Healthcare) in 25 mM Tris pH 8, 150 mM NaCl, and 1 mM DTT.
ITC was carried out at 25 °C with an iTC 200 Microcalorimeter (GE Healthcare) in 25 mM Tris pH 8, 150 mM NaCl, and 1 mM DTT. Titrations consisted of 19 consecutive 2 μl injections of 0.25 to 1 mM peptide solution (following a preinjection of 0.5 μl) into 50 μM protein (VIN3PHD, VIN3_123-326, VIN3_116-307, OBE1_193-372, or pVP13 VIN3_130-299) at time intervals of 120 s. ITC data were analyzed using MicroCal PEAQ-IT Analysis Software (Malvern Sciences).

| Substance | perturbation of BEST-TROSY spectrum, heparin (in words) ([1]; 50 μM ^15N-labeled VIN3_123-326, 4 μM heparin) | affinity / binding of nucleic acid (in words) ([2]; ITC titrations, pH 8) | Kd ([2]; ITC, 25 mM Tris pH 8, 150 mM NaCl, 1 mM DTT, representative profile) | perturbation of BEST-TROSY spectrum (in words) ([1]; 50 μM ^15N-labeled VIN3_123-326, 4 μM 60-mer dsDNA or 63-mer RNA (Fig. 6A, B), ssDNA comparison E. F.-E., unpublished) |
| --- | --- | --- | --- | --- |
| heparin | same set of perturbations |  |  |  |
| 60-mer ssDNA: FLC 60-mer predicted to lack secondary structure, 5′ GAAGAAAAAGTAGATAGGCACAAAAAATAGAAAGAAATAAAGCGAGAAAAGGAAAAAAAA 3′ (DNA, backbone and methylation of C not given here) |  | weak binding in the low millimolar range | ~5 mM | less effective in eliciting spectral changes than dsDNA |

Reference: article PMC9640981, “Plant vernalization proteins contain unusual PHD superdomains without histone H3 binding activity” (The Journal of Biological Chemistry, 2022)
